Measurements taken from PubChem BioAssay AID651551 (Sanford-Burnham Center for Chemical Genomics, 2012).
Activity calls are given as the source filed them.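 How the source made its calls: active means compounds blocking the Peg3 reporter with IC50 up to 10 µM at 6 or 24 hours, yet inert on a control reporter; inactive means the rest.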

Columns and labels:
[1] = GAPDH versus PEG-3 reporter suppression – cell-based, luminescence, counter-screen for PEG-3 promoter inhibitor project, SAR follow-up (AID 651551); conditions: HeLa PEG-Prom / GAPDH luciferase reporter, 6 or 24 h, GAPDH, mean of runs
[2] = target: PEG-3 (UniProt Q6IN02); assay: as above; conditions: HeLa PEG-Prom / GAPDH luciferase reporter, 6 or 24 h, mean of runs

SMILES | IC50 ([1]; 6 h) | IC50 ([1]; 24 h) | IC50 ([2]; 6 h) | IC50 ([2]; 24 h)
COc1ccc(-n2nc(C(=O)NCC(=O)Nc3cc(OC)c(OC)c(OC)c3)c3ccccc3c2=O)cc1OC | > 99 µM (inactive) | 6.31 µM | > 99 µM (inactive) | > 99 µM (inactive)
Cc1cc(NC(=O)c2ccccc2C(F)(F)F)n(-c2nc3ccccc3[nH]2)n1 | inactive | 8.73 µM | inactive | inactive
Cc1ccc(Cl)cc1Nc1nc(-c2sc(NC(=O)c3ccco3)nc2C)cs1 | inactive | 7.63 µM | inactive | inactive
CCn1cc(C(=O)NCc2ccco2)c(=O)c2cc(S(=O)(=O)N3CCCC3)ccc21 | > 99 µM (inactive) | inactive | > 99 µM (inactive) | > 99 µM (inactive)
O=C(Nc1nc(-c2ccccc2)cs1)c1nn(-c2ccccc2)c(=O)c2ccccc12 | > 99 µM (inactive) | > 99 µM (inactive) | > 99 µM (inactive) | > 99 µM (inactive)
COc1ccc(-n2nc(C(=O)NCC(=O)Nc3cccc(OC)c3)c3ccccc3c2=O)cc1 | > 99 µM (inactive) | inactive | > 99 µM (inactive) | > 99 µM (inactive)
Cc1nc(NC(=O)c2ccccc2)sc1-c1csc(Nc2ccccc2Cl)n1 | > 99 µM (inactive) | 7.52 µM | > 99 µM (inactive) | > 99 µM (inactive)
CCCn1nc(C(=O)Nc2nc3ccccc3s2)c2ccccc2c1=O | > 99 µM (inactive) | inactive | > 99 µM (inactive) | > 99 µM (inactive)
Cc1cc(NC(=O)c2ccccc2C)n(-c2nc3ccccc3[nH]2)n1 | > 99 µM (inactive) | inactive | inactive | inactive
Cc1cc(NC(=O)c2ccccc2)n(-c2nc3ccccc3n2C)n1 | > 99 µM (inactive) | > 99 µM (inactive) | inactive | > 99 µM (inactive)
Cc1nc(NC(=O)c2ccccc2)sc1-c1csc(Nc2ccccc2)n1 | inactive | inactive | > 99 µM (inactive) | inactive
CCCn1nc(C(=O)Nc2nc(-c3ccccn3)cs2)c2ccccc2c1=O | inactive | 7.06 µM | 8.66 µM | inactive
COc1ccc(-n2nc(C(=O)NCC(=O)Nc3ccc(OC)c(OC)c3)c3ccccc3c2=O)cc1 | inactive | inactive | > 99 µM (inactive) | > 99 µM (inactive)
COCCCNC(=O)c1ccc(Cn2c(=O)c3ccccc3n(Cc3ccccc3C#N)c2=O)cc1 | > 99 µM (inactive) | 4.68 µM | > 99 µM (inactive) | 6.52 µM
O=C(Nc1nc2ccccc2s1)c1nn(-c2ccccc2)c(=O)c2ccccc12 | > 99 µM (inactive) | inactive | > 99 µM (inactive) | > 99 µM (inactive)
COc1ccccc1Nc1nc(-c2sc(NC(=O)c3ccco3)nc2C)cs1 | inactive | 4.17 µM | > 99 µM (inactive) | > 99 µM (inactive)
CCn1nc(C(=O)Nc2nc(-c3ccccn3)cs2)c2ccccc2c1=O | inactive | 3.96 µM | inactive | 6.13 µM
Cc1cc(NC(=O)c2ccccc2)n(-c2nc3ccccc3[nH]2)n1 | > 99 µM (inactive) | > 99 µM (inactive) | inactive | inactive
Cc1nc(NC(=O)c2ccccc2)sc1-c1csc(Nc2cccc(Cl)c2C)n1 | > 99 µM (inactive) | inactive | > 99 µM (inactive) | > 99 µM (inactive)
COc1ccc(Cl)cc1Nc1nc(-c2sc(NC(=O)c3ccccc3)nc2C)cs1 | > 99 µM (inactive) | 9.9 µM | inactive | inactive
CCCn1nc(C(=O)Nc2nc(-c3ccncc3)cs2)c2ccccc2c1=O | inactive | 5.32 µM | inactive | inactive
O=C(Nc1nccs1)c1nn(-c2ccccc2)c(=O)c2ccccc12 | inactive | 8.39 µM | > 99 µM (inactive) | > 99 µM (inactive)
Cc1cc(NC(=O)c2cccc(C)c2C)n(-c2nc3ccccc3[nH]2)n1 | > 99 µM (inactive) | inactive | inactive | > 99 µM (inactive)
